In US20160046616A1, “NRF2 SMALL MOLECULE INHIBITORS FOR CANCER THERAPY” (THE JOHNS HOPKINS UNIVERSITY, priority 2013, published 2016):
“Also recorded” adds a separate entry of the source.

Assays:
[1] = tested on: A549 NRF2-ARE-Fluc stable cell line; test: A549 Nrf2 assay: NRF2-ARE firefly luciferase reporter gene assay; assay type: cell-based; settings: Homo sapiens, read-out: Potency of inhibition, A549
In short: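 A549 cells (Keap1 loss-of-function, constitutive NRF2) stably carrying ARE-driven firefly luciferase; compound treatment 18–24 h at 37 °C, 0.46% DMSO final.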

H460 xenograft tumors = test: H460 lung cancer xenograft assay (flank); assay type: in vivo, athymic nude mice; settings: for Growth of H460 xenograft tumors, combination with carboplatin / Growth of H460 xenograft tumors, single agent: nude mice
Procedure: For each group, pretreatment available lung volume was defined as 100% and compared with post-treatment lung volumes.
(§1) A549 cells were injected in the flanks of athymic nude mice and once tumor volume reached 50-100 mm^3, treatment was initiated. Vehicle, carboplatin (20 mg/kg; 2 days/week), compound#1 (20 mg/kg 4 days/week) or a combination of compound 1 and carboplatin was administered for four weeks. Values represent tumor volume ±s.e.m. for all groups. […] Tumors were excised and weight at the end of treatment period. […] H460 cells were injected in the flanks of athymic nude mice and once tumor volume reached 50-100 mm^3, treatment was initiated. Vehicle, carboplatin (10 mg/kg; 5 days/week), compound 1 (30 mg/kg 5 days/week) or a combination of compound 1 and carboplatin was administered for three weeks. Values represent tumor volume ±s.e.m.;
For the H460 lung cancer xenograft assay, two million cells in 100 μL of PBS were implanted in the flank of nude mice. One week post cell implantation, when the tumors were about 50 to 100 mm^3 in dimension, the mice were randomly divided into four groups: vehicle, chemotherapeutic drug, Nrf2 inhibitor and chemotherapeutic drug with an Nrf2 inhibitor. The mice were treated with the drugs for 2 to 4 weeks. Tumor volume was recorded biweekly.

[2] = In vivo pharmacokinetic plasma profile; settings: CD-1 mice; for Compound retained in the blood until / Time by which most of the compound is cleared from the blood: IP 30 mg/kg, IV 3 mg/kg, plasma
Procedure: For the in vivo pharmacokinetic studies, single intraperitoneal (IP; 30 mg/kg) and intravenous (IV; 3 mg/kg) injection was carried out using CD-1 mice. (n=3 per group/time point). Compounds in the plasma were quantified using Mass Spectrometry.

A549 xenograft tumors = test: A549 lung cancer xenograft assay (flank); assay type: in vivo, athymic nude mice; settings: for A549 tumor weight at end of treatment, combination with carboplatin / A549 tumor weight at end of treatment, single agent: compared to vehicle group; for Growth of A549 xenograft tumors, combination with carboplatin / Growth of A549 xenograft tumors, single agent: nude mice, flank; for Growth of A549 xenograft tumors, single agent / Efficacy of compound alone relative to carboplatin, A549 tumors: single agent
Procedure: A549 cells were injected in the flanks of athymic nude mice and once tumor volume reached 50-100 mm^3, treatment was initiated. Vehicle, carboplatin (5 mg/kg daily Monday to Friday), compound 4 (30 mg/kg daily Monday to Friday) or a combination of compound 4 and carboplatin was administered for three weeks. Values represent tumor volume ±s.e.m. for all groups (A). […] Tumors were excised and weight at the end of treatment period. […] For each group, pretreatment available lung volume was defined as 100% and compared with post-treatment lung volumes. Mice in the vehicle treated group died at 3 weeks;
as §1
A549 cells were injected in the flanks of athymic nude mice and once tumor volume reached 50-100 mm^3, treatment was initiated. Vehicle, carboplatin (10 mg/kg; 5 days/week), compound 3 (60 mg/kg 4 days/week) or a combination of compound 3 and carboplatin was administered for 15 days. Tumor growth was monitored till 28 days. Values represent tumor volume ±s.e.m. for all groups. […] Values represent tumor volume ±s.e.m.;
For the A549 lung cancer xenograft assay, five million cells in 100 μL of PBS were implanted in the flank of nude mice. Two to three weeks post cell implantation, when the tumors were about 50 to 100 mm^3 in dimension, the mice were randomly divided into four groups: vehicle, chemotherapeutic drug, Nrf2 inhibitor, and chemotherapeutic drug with an Nrf2 inhibitor. The mice were treated with the drugs for 2 to 4 weeks. Tumor volume was recorded biweekly.

O=C(Nc1ncc(Cc2ccc(C(F)(F)F)cc2)s1)c1ccc(-c2cccc([N+](=O)[O-])c2)o1 [Compound 1]
IC50 [1]: 5 to 25 µM | Growth of H460 xenograft tumors, combination with carboplatin (H460 xenograft tumors): shows anti-tumor efficacy in combination with carboplatin | Retention time in the blood, comparison of compounds 3, 4 and 1 [2]: retained in the blood for the longest time | Compound retained in the blood until [2]: about 24 hr | A549 tumor weight at end of treatment, combination with carboplatin (A549 xenograft tumors): significantly reduced tumor weight | A549 tumor weight at end of treatment, single agent (A549 xenograft tumors): significantly reduced tumor weight | Growth of A549 xenograft tumors, combination with carboplatin (A549 xenograft tumors): showed inhibition of A549 xenograft tumors; also recorded: sensitized A549 lung tumors to carboplatin therapy | Growth of A549 xenograft tumors, single agent (A549 xenograft tumors): showed inhibition of A549 xenograft tumors; also recorded: shows anti-tumor activity as a single agent | Efficacy of compound alone relative to carboplatin, A549 tumors (A549 xenograft tumors): comparable to carboplatin

CC1(C)CC2CC(C)(CN2S(=O)(=O)c2ccc(C(=O)Nc3ccc(Cl)c(S(=O)(=O)N4CCOCC4)c3)cc2)C1 (stereo not drawn) [compound 3]
IC50 [1]: < 5 µM | Growth of H460 xenograft tumors, combination with carboplatin (H460 xenograft tumors): inhibited the growth | Growth of H460 xenograft tumors, single agent (H460 xenograft tumors; single agent): inhibited the growth | Retention time in the blood, comparison of compounds 3, 4 and 1 [2]: cleared the fastest | Time by which most of the compound is cleared from the blood [2]: about 8 hrs | A549 tumor growth at Day 43, 4 weeks from the end of treatment, combination with carboplatin (A549 xenograft tumors; compound 60 mg/kg 4 days/week + carboplatin 10 mg/kg 5 days/week for 15 days): significant growth retardation as compared to group treated with single agent | Growth of A549 xenograft tumors, combination with carboplatin (A549 xenograft tumors): inhibited the growth; also recorded: sensitized A549 lung tumors to carboplatin therapy | Growth of A549 xenograft tumors, single agent (A549 xenograft tumors): inhibited the growth; also recorded: significantly attenuated tumor growth till 28 days | Efficacy of compound alone relative to carboplatin, A549 tumors (A549 xenograft tumors): comparable to carboplatin

Cc1ccccc1C(=O)N1CCc2cc(-c3nc(NC(=O)Cc4ccc5c(c4)OCO5)sc3C)ccc21 [compound 4]
IC50 [1]: < 5 µM | Growth of H460 xenograft tumors, combination with carboplatin (H460 xenograft tumors): sensitized H460 lung tumors to carboplatin drug therapy | Growth of H460 xenograft tumors, combination with carboplatin (H460 xenograft tumors; listed as ML385): significant reduction in tumor volume and weight | Growth of H460 xenograft tumors, single agent (H460 xenograft tumors; single agent): significant reduction in tumor volume and weight | Efficacy of compound alone relative to carboplatin, H460 tumors (H460 xenograft tumors; single agent): comparable to carboplatin | Compound retained in the blood until [2]: about 12 hr | Time by which most of the compound is cleared from the blood [2]: ≤ 24 h | A549 tumor weight at end of treatment, combination with carboplatin (A549 xenograft tumors): significantly reduced tumor weight | A549 tumor weight at end of treatment, single agent (A549 xenograft tumors): significantly reduced tumor weight | Growth of A549 xenograft tumors, combination with carboplatin (A549 xenograft tumors): tumor size and tumor weight was reduced; also recorded: sensitized A549 lung tumors to carboplatin therapy | Growth of A549 xenograft tumors, single agent (A549 xenograft tumors): tumor size and tumor weight was reduced; also recorded: shows anti-tumor activity as a single agent | Efficacy of compound alone relative to carboplatin, A549 tumors (A549 xenograft tumors): comparable to carboplatin
